This is an account of results in BindingDB's records for doi:10.7270/Q2251GKR (Vanderbilt Screening Center for GPCRs, Ion Channels and …, 2010).

The test concerns the target T1, Muscarinic acetylcholine receptor M4 (Rattus norvegicus, UniProt P08485).
T1 sequence (P08485 whole entry): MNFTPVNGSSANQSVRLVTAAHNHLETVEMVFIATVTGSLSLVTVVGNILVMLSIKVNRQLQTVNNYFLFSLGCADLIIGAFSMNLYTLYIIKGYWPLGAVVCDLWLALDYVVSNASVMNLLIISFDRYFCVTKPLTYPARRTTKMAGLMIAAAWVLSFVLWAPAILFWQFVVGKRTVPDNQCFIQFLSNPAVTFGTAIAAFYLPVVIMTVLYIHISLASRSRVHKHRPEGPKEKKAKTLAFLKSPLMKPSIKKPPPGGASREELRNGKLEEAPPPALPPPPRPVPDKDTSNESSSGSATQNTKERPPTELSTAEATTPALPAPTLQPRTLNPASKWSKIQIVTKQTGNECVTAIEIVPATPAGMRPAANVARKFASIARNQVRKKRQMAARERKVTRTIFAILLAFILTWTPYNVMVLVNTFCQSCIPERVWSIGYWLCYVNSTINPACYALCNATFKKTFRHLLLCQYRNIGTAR
In words: potentiation of acetylcholine response at rM4 – cell-based, analogs, calcium mobilization, Gqi5, SAR follow-up (AID 1923).

`Cc1cc(C)c2c(N)c(C(=O)NCc3ccc4c(c3)OCO4)sc2n1` [3-amino-4,6-dimethyl-N-piperonyl-thieno[2,3-b]pyridine-2-carboxamide]: the EC50 worked out at 369 nM.

Broadly, the EC50 is the midpoint of the concentration-response curve.
